“And” between values parts separate entries of the source, which are not always exact repeats. Equal entries are not always repeated.
What was measured:
Format in all cases: cell-based
human GIPR = molecular target: T1, human GIPR (Homo sapiens, UniProt P48546); experiment: cAMP assay (HitHunter) in transiently transfected COS-7 cells expressing human GIPR; details: COS-7, read-out: Efficacy GIPR (Emax)
T1 construct: host or cells: COS-7
T1 sequence (P48546 22-466): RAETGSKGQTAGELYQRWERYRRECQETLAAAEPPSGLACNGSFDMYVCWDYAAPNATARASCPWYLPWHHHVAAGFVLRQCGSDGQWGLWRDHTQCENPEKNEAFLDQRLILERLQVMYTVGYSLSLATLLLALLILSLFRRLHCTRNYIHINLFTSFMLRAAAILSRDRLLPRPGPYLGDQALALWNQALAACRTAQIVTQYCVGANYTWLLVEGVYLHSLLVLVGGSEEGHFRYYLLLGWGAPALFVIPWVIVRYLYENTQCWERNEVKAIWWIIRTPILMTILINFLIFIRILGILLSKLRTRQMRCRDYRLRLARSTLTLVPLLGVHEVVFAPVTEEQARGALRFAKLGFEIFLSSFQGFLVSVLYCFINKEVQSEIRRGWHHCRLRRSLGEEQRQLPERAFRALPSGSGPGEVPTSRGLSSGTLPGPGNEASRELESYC

human SNAP-tagged GLP-1R = molecular target: T2, human SNAP-tagged GLP-1R (Homo sapiens, UniProt P43220); experiment: Receptor internalization assay, HEK293A cells expressing human SNAP-tagged GLP-1R; details: for Absolute hGLP-1R internalization (AUC): AUC of sigmoid curves up to 1 μM, 60 minutes at 37° C.; for Relative hGLP-1R internalization (%): relative to hGLP-1 = 100
T2 construct: expressed in transfected cells; host or cells: HEK293A

human GLP-1R = molecular target: T3, human GLP-1R (Homo sapiens, UniProt P43220); experiment: cAMP assay (HitHunter) in transiently transfected COS-7 cells expressing human GLP-1R; details: COS-7, read-out: Efficacy GLP-1R (Emax)
T3 construct: host or cells: COS-7

human GLP-2R = molecular target: T4, human GLP-2R (Homo sapiens, UniProt O95838); experiment: cAMP assay (HitHunter) in transiently transfected COS-7 cells expressing human GLP-2R; details: COS-7, read-out: Efficacy GLP-2R (Emax)
T4 construct: host or cells: COS-7
T4 sequence (O95838 1-553): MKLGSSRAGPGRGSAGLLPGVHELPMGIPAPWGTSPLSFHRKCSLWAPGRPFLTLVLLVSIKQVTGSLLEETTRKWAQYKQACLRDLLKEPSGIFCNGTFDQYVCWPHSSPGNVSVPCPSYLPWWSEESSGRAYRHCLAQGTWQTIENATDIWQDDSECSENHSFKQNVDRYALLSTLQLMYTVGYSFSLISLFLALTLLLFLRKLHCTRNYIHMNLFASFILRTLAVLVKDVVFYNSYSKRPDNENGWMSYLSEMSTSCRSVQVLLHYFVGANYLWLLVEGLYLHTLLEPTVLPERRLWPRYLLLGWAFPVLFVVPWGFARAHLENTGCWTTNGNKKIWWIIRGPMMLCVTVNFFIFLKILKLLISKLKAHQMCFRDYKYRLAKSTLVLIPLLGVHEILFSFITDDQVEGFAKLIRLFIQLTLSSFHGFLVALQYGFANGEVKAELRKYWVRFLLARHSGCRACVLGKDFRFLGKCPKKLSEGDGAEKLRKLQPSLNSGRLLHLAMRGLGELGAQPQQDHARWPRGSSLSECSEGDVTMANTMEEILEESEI

human SNP-tagged GLP-2R = molecular target: T5, human SNP-tagged GLP-2R (Homo sapiens, UniProt O95838); experiment: Receptor internalization assay, HEK293A cells expressing human SNAP-tagged GLP-2R; details: for Absolute hGLP-2R internalization (AUC): AUC of sigmoid curves up to 1 μM, 60 minutes at 37° C.; for Relative hGLP-2R internalization (%): relative to native ligand = 100
T5 construct: expressed in transfected cells; host or cells: HEK293A
T5 sequence (O95838 1-553): T4 sequence (O95838 1-553)

[1] = molecular target: human glucagon receptor (GCGR) (Homo sapiens, UniProt P47871); experiment: Gs activation measured as cAMP accumulation on human glucagon receptor (FIG. 1 radar plot); details: read-out: −p Log EC50 on human glucagon receptor (GCGR) (converted)
Description: Here, the compounds 20, 21, 22, 28, 30, 31,32, 33, 34, 35 are shown in terms of their potencies in Gs activation, measured as CAMP accumulation, depicted in a radar plot. The numbers refer to −p Log EC50 values. […] The outer rings correspond to higher potencies, the inner rings correspond to lower potencies.

human SNAP-tagged GIPR = molecular target: T6, human SNAP-tagged GIPR (Homo sapiens, UniProt P48546); experiment: Receptor internalization assay, HEK293A cells expressing human SNAP-tagged GIPR
T6 construct: host or cells: HEK293A
T6 sequence (P48546 22-466): T1 sequence (P48546 22-466)

T2 sequence (P43220 24-463): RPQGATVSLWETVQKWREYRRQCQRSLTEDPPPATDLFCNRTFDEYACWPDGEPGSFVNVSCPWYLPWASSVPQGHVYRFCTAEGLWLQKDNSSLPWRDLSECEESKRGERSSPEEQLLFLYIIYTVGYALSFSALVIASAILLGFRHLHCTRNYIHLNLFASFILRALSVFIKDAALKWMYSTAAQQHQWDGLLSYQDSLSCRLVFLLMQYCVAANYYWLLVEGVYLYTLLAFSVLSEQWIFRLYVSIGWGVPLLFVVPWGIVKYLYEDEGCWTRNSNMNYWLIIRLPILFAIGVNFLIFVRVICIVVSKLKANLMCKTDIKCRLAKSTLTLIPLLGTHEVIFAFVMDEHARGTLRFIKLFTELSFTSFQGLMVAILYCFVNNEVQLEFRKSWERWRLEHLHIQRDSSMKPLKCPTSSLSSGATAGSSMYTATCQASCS
T3 sequence (P43220 24-463): as above
human glucagon receptor (GCGR), sequence (P47871 26-477): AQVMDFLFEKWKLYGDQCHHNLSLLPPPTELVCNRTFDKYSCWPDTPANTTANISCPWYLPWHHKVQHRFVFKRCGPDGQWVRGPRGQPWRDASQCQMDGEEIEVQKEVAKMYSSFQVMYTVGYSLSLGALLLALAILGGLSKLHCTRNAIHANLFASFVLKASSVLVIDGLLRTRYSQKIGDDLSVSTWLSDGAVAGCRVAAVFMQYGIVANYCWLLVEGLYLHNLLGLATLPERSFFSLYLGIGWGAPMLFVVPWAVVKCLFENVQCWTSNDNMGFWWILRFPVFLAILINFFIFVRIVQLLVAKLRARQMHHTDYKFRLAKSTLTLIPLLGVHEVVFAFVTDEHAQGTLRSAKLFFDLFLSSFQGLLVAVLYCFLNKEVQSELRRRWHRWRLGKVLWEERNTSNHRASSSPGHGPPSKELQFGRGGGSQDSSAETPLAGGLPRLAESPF

## CC[C@H](C)[C@H](NC(=O)[C@H](Cc1ccccc1)NC(=O)[C@H](CC(=O)O)NC(=O)[C@H](CCCNC(=N)N)NC(=O)[C@H](C)NC(=O)[C@H](C)NC(=O)[C@H](CC(C)C)NC(=O)[C@H](CC(N)=O)NC(=O)[C@H](CC(=O)O)NC(=O)[C@H](CC(C)C)NC(=O)[C@@H](NC(=O)[C@@H](NC(=O)[C@H](CO)NC(=O)[C@H](Cc1ccc(O)cc1)NC(=O)[C@H](CC(=O)O)NC(=O)[C@H](CO)NC(=O)[C@@H](NC(=O)[C@H](Cc1ccccc1)NC(=O)[C@@H](NC(=O)CNC(=O)[C@H](CC(=O)O)NC(=O)[C@H](C)NC(=O)[C@@H](N)Cc1c[nH]cn1)[C@@H](C)O)[C@@H](C)CC)[C@@H](C)O)[C@@H](C)CC)C(=O)N[C@@H](CC(N)=O)C(=O)N[C@@H](Cc1c[nH]c2ccccc12)C(=O)N[C@@H](CC(C)C)C(=O)N[C@H](C(=O)N[C@@H](CCC(N)=O)C(=O)N[C@H](C(=O)N[C@@H](CCCCN)C(=O)NCC(=O)N[C@@H](CCCCN)C(=O)N[C@@H](CCCCNC(=O)COCCOCCNC(=O)COCCOCCNC(=O)CC[C@H](NC(=O)CCCCCCCCCCCCCCCCC(=O)O)C(=O)O)C(=O)O)[C@@H](C)O)[C@@H](C)CC [Compound 33]
Human GIPR
  Emax: 88%
Human SNAP-tagged GLP-1R
  Absolute hGLP-1R internalization (AUC): 6.4
  Relative hGLP-1R internalization (%): 7.7%
Human GLP-1R
  Emax: 99%
Human GLP-2R
  Emax: 90%
Human SNP-tagged GLP-2R
  Absolute hGLP-2R internalization (AUC): 6.4
  Relative hGLP-2R internalization (%): 13.2%
[1]
  EC50: > 100 nM
Human SNAP-tagged GIPR
  Absolute hGIPR internalization (AUC): 15.8
  Relative hGIPR internalization (%): 43%

## CC[C@H](C)[C@H](NC(=O)[C@H](Cc1ccccc1)NC(=O)[C@H](CC(=O)O)NC(=O)[C@H](CCCNC(=N)N)NC(=O)[C@H](C)NC(=O)[C@H](C)NC(=O)[C@H](CC(C)C)NC(=O)[C@H](CC(N)=O)NC(=O)[C@H](CC(=O)O)NC(=O)[C@H](CC(C)C)NC(=O)C(C)(C)NC(=O)[C@@H](NC(=O)[C@H](CO)NC(=O)[C@H](Cc1ccc(O)cc1)NC(=O)[C@H](CC(=O)O)NC(=O)[C@H](CO)NC(=O)[C@@H](NC(=O)[C@H](Cc1ccccc1)NC(=O)[C@@H](NC(=O)CNC(=O)[C@H](CC(=O)O)NC(=O)[C@H](C)NC(=O)[C@@H](N)Cc1c[nH]cn1)[C@@H](C)O)[C@@H](C)CC)[C@@H](C)O)C(=O)N[C@@H](CC(N)=O)C(=O)N[C@@H](Cc1c[nH]c2ccccc12)C(=O)N[C@@H](CC(C)C)C(=O)N[C@H](C(=O)N[C@@H](CCC(N)=O)C(=O)N[C@H](C(=O)N[C@@H](CCCCN)C(=O)NCC(=O)N[C@@H](CCCCN)C(=O)N[C@@H](CCCCN)C(=O)N[C@@H](CCCCNC(=O)COCCOCCNC(=O)COCCOCCNC(=O)CC[C@H](NC(=O)CCCCCCCCCCCCCCCCC(=O)O)C(=O)O)C(=O)O)[C@@H](C)O)[C@@H](C)CC [Compound 35]
Human GIPR
  Emax: 99%
Human SNAP-tagged GLP-1R
  Absolute hGLP-1R internalization (AUC): 2.0
  Relative hGLP-1R internalization (%): 2.4%
Human GLP-1R
  Emax: 92%
Human GLP-2R
  Emax: 93%
Human SNP-tagged GLP-2R
  Absolute hGLP-2R internalization (AUC): 7.6
  Relative hGLP-2R internalization (%): 15.7%
[1]
  EC50: > 100 nM
Human SNAP-tagged GIPR
  Absolute hGIPR internalization (AUC): 14.3
  Relative hGIPR internalization (%): 39% and 38%
